Test results: ChEMBL document CHEMBL4177573 (Bioorg Med Chem, 2017)
Activity calls are given as the source filed them. No cut-off for these calls is given here.

Key:
[1] = biological target: T1, Neuropeptide Y receptor type 2 (Homo sapiens, UniProt P49146); experiment: Displacement of [125I]-PYY from human neuropeptide Y2 receptor expressed in CHO cell membranes incubated for 60 mins by TopCount based method
T1 sequence (P49146 whole entry): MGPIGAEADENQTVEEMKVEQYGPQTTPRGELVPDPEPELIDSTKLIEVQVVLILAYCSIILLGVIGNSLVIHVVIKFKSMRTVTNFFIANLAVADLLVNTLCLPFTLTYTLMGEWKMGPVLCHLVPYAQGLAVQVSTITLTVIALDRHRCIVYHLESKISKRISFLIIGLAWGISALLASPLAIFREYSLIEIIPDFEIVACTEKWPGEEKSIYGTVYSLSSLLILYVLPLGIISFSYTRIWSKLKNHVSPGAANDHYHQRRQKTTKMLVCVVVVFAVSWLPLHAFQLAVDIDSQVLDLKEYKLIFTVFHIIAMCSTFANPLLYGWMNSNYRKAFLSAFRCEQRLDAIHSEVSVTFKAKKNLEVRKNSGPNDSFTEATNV

[2] = biological target: T1, Neuropeptide Y receptor type 2; experiment: Agonist activity at human neuropeptide Y2 receptor expressed in CHO cell membranes assessed as stimulation of [35S]GTPgammaS binding incubated for 120 mins by liquid scintillation counting method; type: functional
[3] = tested on: Mus musculus; experiment: Anorectic activity in C57BL/6J mouse assessed as inhibition of food intake at 0.03 mg/kg/day, sc for 3 days dosed as continuous administration by infusion using osmotic pump; type: functional; conditions: 72 h
[4] = tested on: Mus musculus; experiment: Anorectic activity in C57BL/6J mouse assessed as inhibition of food intake at 0.3 mg/kg/day, sc dosed as […] and measured after 12 hrs; type: functional
[5] = tested on: Mus musculus; experiment: Anorectic activity in C57BL/6J mouse assessed as inhibition of food intake at 0.3 mg/kg/day, sc dosed as […] and measured after 24 hrs; type: functional
[6] = tested on: Mus musculus; experiment: Antiobesity activity in DIO C57BL/6J mouse assessed as reduction in body weight at 0.01 mg/kg, sc for 2 weeks dosed as continuous administration by infusion of osmotic pumps; type: functional; conditions: 336 h
[7] = tested on: Mus musculus; experiment: Antiobesity activity in DIO C57BL/6J mouse assessed as reduction in body weight at 1 mg/kg, sc […] for 2 weeks dosed by infusion of osmotic pumps; type: functional; conditions: 336 h
[8] = AUC (0 to 24 hrs) in C57BL/6J mouse at 1 mg/kg, iv measured during 5 mins to 24 hrs by LC/MS/MS method; type: ADME, organism-based; design: dose 1 mg/kg, time < 24 hr, route intravenous; conditions: in vivo
[9] = MRT in C57BL/6J mouse at 1 mg/kg, iv measured during 5 mins to 24 hrs by LC/MS/MS method; type: ADME, organism-based; conditions: in vivo
[10] = Volume of distribution at steady state in C57BL/6J mouse at 1 mg/kg, iv measured during 5 mins to 24 hrs by LC/MS/MS method; type: ADME, organism-based; conditions: in vivo, read-out: Vdss
[11] = Total clearance in C57BL/6J mouse at 1 mg/kg, iv measured during 5 mins to 24 hrs by LC/MS/MS method; type: ADME, organism-based; conditions: in vivo
[12] = MRT in C57BL/6J mouse at 1 mg/kg, sc measured during 5 mins to 24 hrs by LC/MS/MS method; type: ADME, organism-based; conditions: in vivo
[13] = Bioavailability in C57BL/6J mouse at 1 mg/kg, sc measured during 5 mins to 24 hrs by LC/MS/MS method; type: ADME, organism-based; conditions: in vivo
[14] = tested on: Mus musculus; experiment: Anorectic activity in overnight fasted C57BL/6J mouse assessed as inhibition of food intake at 10 nmol/kg, sc followed by re-feeding post dose and measured for 2 hrs; type: functional, organism-based
[15] = biological target: T2, Neuropeptide Y receptor type 2 (Rattus norvegicus, UniProt Q9ERC0); experiment: Agonist activity at rat neuropeptide Y2 receptor by [35S]GTPgammaS binding assay; type: functional
T2 sequence (Q9ERC0 whole entry): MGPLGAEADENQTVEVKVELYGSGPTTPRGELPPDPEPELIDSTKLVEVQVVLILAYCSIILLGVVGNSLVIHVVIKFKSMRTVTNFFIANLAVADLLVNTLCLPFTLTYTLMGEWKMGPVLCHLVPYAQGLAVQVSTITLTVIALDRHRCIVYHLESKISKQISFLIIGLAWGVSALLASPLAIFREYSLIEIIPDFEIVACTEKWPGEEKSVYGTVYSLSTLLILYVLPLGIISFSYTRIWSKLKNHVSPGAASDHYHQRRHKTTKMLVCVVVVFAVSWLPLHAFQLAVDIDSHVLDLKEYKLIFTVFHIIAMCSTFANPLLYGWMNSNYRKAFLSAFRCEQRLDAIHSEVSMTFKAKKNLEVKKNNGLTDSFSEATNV

[16] = biological target: Neuropeptide Y receptor type 4 (Rattus norvegicus, UniProt Q63447); experiment: Agonist activity at rat neuropeptide Y4 receptor by [35S]GTPgammaS binding assay; type: functional
Chain of Neuropeptide Y receptor type 4 (Q63447 whole entry, the tested form may be a part): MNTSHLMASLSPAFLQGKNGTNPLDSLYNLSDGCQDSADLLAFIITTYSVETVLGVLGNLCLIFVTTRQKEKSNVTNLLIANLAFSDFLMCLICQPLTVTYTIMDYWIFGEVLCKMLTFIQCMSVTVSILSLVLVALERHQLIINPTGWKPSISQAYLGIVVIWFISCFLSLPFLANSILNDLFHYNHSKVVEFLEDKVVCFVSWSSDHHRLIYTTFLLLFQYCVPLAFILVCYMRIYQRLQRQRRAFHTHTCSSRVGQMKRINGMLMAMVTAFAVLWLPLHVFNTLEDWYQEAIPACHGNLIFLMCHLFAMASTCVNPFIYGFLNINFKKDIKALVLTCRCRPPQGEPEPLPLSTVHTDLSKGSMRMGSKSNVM

[17] = tested on: Mus musculus; experiment: Antiobesity activity in DIO C57BL/6J mouse assessed as reduction in body weight at 0.03 mg/kg, sc for 2 weeks dosed as continuous administration by infusion of osmotic pumps relative to untreated control; type: functional; conditions: 336 h
[18] = tested on: Mus musculus; experiment: Anorectic activity in DIO C57BL/6J mouse assessed as reduction in cumulative food intake at 0.03 mg/kg, sc for 2 weeks dosed as continuous administration by infusion of osmotic pumps relative to untreated control; type: functional, organism-based
[19] = tested on: Mus musculus; experiment: Anorectic activity in DIO C57BL/6J mouse assessed as reduction in cumulative food intake at 0.01 mg/kg, sc for 2 weeks dosed as continuous administration by infusion of osmotic pumps relative to untreated control; type: functional, organism-based
[20] = tested on: Mus musculus; experiment: Antiobesity activity in DIO C57BL/6J mouse assessed as reduction in liver weight at 0.003 to 0.03 mg/kg, sc for 2 weeks dosed as continuous administration by infusion of osmotic pumps relative to untreated control; type: functional, organism-based
[21] = tested on: Mus musculus; experiment: Antiobesity activity in DIO C57BL/6J mouse assessed as reduction in perirenal weight at 0.003 to 0.03 mg/kg, sc for 2 weeks dosed as continuous administration by infusion of osmotic pumps relative to untreated control; type: functional, organism-based
[22] = tested on: Mus musculus; experiment: Antiobesity activity in DIO C57BL/6J mouse assessed as reduction in mesenteric fat weight at 0.003 to 0.03 mg/kg, sc for 2 weeks dosed as continuous administration by infusion of osmotic pumps relative to untreated control; type: functional, organism-based
[23] = tested on: Mus musculus; experiment: Anorectic activity in C57BL/6J mouse assessed as inhibition of food intake at 0.03 to 1 mg/kg/day, sc for 3 days dosed as continuous administration by infusion using osmotic pump; type: functional, organism-based
[24] = tested on: Mus musculus; experiment: Antiobesity activity in DIO C57BL/6J mouse assessed as reduction in body weight at 0.003 to 0.03 mg/kg, sc for 2 weeks dosed as continuous administration by infusion of osmotic pumps relative to untreated control; type: functional, organism-based
[25] = tested on: Mus musculus; experiment: Anorectic activity in DIO C57BL/6J mouse assessed as reduction in cumulative food intake at 0.03 mg/kg, sc for 2 weeks dosed as continuous administration by infusion of osmotic pumps relative to 0.3 mg/kg/day, sc PYY(3-36); type: functional
[26] = tested on: Mus musculus; experiment: Antiobesity activity in DIO C57BL/6J mouse assessed as reduction in body weight at 0.01 mg/kg, sc for 2 weeks dosed as continuous administration by infusion of osmotic pumps relative to untreated control; type: functional; design: scale not given: the % may be the effect or the level left

IC50 [1]: 0.31 nM
EC50 [2]: 0.15 nM
AUC(0-t) at 24 h [8]: 0.577 µM·h
MRT [9]: 21 min
Vd [10]: 0.293 L/kg
clearance [11]: 14.2 mL/min/kg
MRT [12]: 33.6 min
bioavailability [13]: 60.2%
EC50 [15]: 0.038 nM
EC50 [16]: > 1000 nM
SMILES: CC[C@](C)(NC(=O)[C@H]1C[C@H](O)CN1C(=O)[C@H](CO)NC(=O)c1c[nH]cn1)C(=O)N[C@@H](Cc1ccncc1)C(=O)N[C@@H](CC1CCCCC1)C(=O)N[C@@H](CC(C)(C)C)C(=O)N[C@@H](CC(N)=O)C(=O)N[C@@H](CCCCN)C(=O)NC(C)(C)C(=O)N[C@H](C(=O)N[C@@H](CCCNC(=N)N)C(=O)N[C@@H](CCC(N)=O)C(=O)N[C@@H](CCCNC(=N)N)C(=O)N[C@@H](CC1CCCCC1)C(N)=O)[C@@H](C)O
inhibition in vivo at 0.03 mg/kg/day [3]: 52%
inhibition in vivo at 0.3 mg/kg/day [4]: 41%
inhibition in vivo at 0.3 mg/kg/day [5]: 22%
inhibition in vivo at 0.01 mg/kg [6]: 8.9%
inhibition in vivo at 1 mg/kg [7]: 7.6%
Activity [14]: Active
inhibition in vivo at 0.03 mg/kg [17]: 15.1%
Activity [18]: Active
Activity [19]: Active
Activity [20]: Active
Activity [21]: Active
Activity [22]: Active
Activity [23]: Dose-dependent effect
Activity [24]: Dose-dependent effect
fold change (FC) [25]: 30
Activity [26]: 8.3%
